Results: ChEMBL document CHEMBL1201862, “PubChem BioAssay data set” (2004)
Each block holds one molecule with its values, some of them ahead of it. Activity calls are given as the source filed them.

Tests used:
[1] = molecular target: T1, Eukaryotic translation initiation factor 2-alpha kinase 3 (Homo sapiens, UniProt Q9NZJ5); test: Dose response cell-based high-throughput screening assay to measure PERK inhibition. [Related pubchem assays: 1416 ]; format: functional
[2] = molecular target: T1, Eukaryotic translation initiation factor 2-alpha kinase 3; test: Counterscreen assay for PERK inhibitors: Dose response cell-based high throughput screening assay to measure inhibition of PERK at 6 hours. [Related pubchem assays: 1522, 1416 ]; format: functional
Vero = test: host cell viability loss, Vero E6 – synthesized analogs, cytotoxicity control for West Nile virus antiviral project, SAR follow-up (AID 2244); format: functional; conditions: Chlorocebus sabaeus
[3] = molecular target: Lysosomal acid glucosylceramidase (Homo sapiens, UniProt P04062); test: Dose response cell-based high throughput screening assay to identify enhancers of beta-glucosidase activity. [Related pubchem assays: 784 ]; format: functional
Chain of Lysosomal acid glucosylceramidase (P04062 whole entry): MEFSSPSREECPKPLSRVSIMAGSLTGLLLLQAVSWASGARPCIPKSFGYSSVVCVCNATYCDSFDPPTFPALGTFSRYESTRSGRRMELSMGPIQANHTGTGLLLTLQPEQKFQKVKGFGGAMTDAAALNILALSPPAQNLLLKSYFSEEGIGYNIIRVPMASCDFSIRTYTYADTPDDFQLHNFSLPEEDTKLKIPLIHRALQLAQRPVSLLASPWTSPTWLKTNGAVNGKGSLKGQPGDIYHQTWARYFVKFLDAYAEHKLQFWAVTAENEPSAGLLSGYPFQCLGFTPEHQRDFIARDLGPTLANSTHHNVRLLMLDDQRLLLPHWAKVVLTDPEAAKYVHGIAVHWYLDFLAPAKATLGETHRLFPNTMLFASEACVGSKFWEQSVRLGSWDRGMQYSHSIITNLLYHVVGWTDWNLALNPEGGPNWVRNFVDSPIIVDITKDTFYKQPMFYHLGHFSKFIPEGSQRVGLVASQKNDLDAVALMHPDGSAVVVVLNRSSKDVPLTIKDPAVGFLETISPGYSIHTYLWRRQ

Staphylococcus aureus = test: Inhibitors of Bacterial Quorum Sensing Structure Activity Relationship (SAR) Analysis: Dose Response Assay. [Related pubchem assays: 700, 527 ]; format: functional, organism-based
Cysteine protease ATG4B = molecular target: T2, Cysteine protease ATG4B (Homo sapiens, UniProt Q9Y4P1); format: functional;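 note: Fluorescence-based dose-response confirmation assay measuring inhibition of ATG4B activity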
T2 sequence (Q9Y4P1 whole entry): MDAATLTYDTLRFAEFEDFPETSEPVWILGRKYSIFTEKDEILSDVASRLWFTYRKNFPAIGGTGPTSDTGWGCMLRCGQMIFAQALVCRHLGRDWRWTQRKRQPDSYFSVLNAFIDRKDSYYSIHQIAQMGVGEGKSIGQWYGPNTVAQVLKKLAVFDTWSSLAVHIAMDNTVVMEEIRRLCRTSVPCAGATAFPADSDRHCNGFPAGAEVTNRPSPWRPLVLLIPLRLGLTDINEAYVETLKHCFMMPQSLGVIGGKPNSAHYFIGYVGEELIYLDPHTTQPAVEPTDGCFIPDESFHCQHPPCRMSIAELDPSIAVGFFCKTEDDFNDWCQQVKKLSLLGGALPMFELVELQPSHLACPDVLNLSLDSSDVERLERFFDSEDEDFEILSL

Cytochrome P450 2C19 = Cytochrome P450 2C19 (Homo sapiens, UniProt P33261); test: Cytochrome panel assay with activity outcomes. Panel member name: p450-cyp2c19 Compounds with AC50 equal or less than 10 uM are considered active; format: functional; conditions: read-out: AC50
Chain of Cytochrome P450 2C19 (P33261 whole entry): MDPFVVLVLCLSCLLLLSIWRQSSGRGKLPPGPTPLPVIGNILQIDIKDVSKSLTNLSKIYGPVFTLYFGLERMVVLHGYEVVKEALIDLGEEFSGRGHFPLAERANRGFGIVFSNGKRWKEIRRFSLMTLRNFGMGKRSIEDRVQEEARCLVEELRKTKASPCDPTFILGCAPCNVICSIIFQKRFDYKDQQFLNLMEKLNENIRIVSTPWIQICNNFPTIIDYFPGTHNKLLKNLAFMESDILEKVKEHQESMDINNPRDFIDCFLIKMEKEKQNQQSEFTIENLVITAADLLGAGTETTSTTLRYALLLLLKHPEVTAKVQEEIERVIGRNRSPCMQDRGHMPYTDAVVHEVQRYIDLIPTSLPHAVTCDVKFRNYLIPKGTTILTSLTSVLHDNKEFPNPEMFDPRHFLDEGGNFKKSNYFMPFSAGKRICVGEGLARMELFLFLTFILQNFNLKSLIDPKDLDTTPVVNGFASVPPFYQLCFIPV

Phospholipase A2 = Phospholipase A2 (Homo sapiens, UniProt P04054); format: functional;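 note: confirmatory dose-response counterscreen on phospholipase A2, testing hits that came from an ultra-high-throughput screen for ATG4B inhibitors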
Chain of Phospholipase A2 (P04054 whole entry): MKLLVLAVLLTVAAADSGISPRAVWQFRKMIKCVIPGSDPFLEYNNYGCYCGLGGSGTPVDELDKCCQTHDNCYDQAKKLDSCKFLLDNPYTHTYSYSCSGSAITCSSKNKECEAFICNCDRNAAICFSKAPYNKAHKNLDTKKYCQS

Cytochrome P450 3A4 = Cytochrome P450 3A4 (Homo sapiens, UniProt P08684);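 note: CYP3A4 tested as one member of a cytochrome P450 panel screen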
Chain of Cytochrome P450 3A4 (P08684 whole entry): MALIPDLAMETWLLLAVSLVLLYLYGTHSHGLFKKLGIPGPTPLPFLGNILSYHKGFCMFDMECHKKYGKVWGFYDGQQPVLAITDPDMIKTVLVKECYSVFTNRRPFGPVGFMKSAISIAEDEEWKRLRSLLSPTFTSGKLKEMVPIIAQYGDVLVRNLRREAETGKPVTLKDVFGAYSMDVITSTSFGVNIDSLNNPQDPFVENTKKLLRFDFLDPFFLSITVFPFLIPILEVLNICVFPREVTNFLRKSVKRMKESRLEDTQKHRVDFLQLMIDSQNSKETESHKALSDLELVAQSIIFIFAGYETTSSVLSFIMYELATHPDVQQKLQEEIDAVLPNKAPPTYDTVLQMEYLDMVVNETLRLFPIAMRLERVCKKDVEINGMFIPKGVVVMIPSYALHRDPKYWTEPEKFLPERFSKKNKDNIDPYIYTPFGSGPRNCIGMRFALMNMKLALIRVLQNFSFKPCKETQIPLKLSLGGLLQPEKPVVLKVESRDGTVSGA

T1 sequence (Q9NZJ5 whole entry): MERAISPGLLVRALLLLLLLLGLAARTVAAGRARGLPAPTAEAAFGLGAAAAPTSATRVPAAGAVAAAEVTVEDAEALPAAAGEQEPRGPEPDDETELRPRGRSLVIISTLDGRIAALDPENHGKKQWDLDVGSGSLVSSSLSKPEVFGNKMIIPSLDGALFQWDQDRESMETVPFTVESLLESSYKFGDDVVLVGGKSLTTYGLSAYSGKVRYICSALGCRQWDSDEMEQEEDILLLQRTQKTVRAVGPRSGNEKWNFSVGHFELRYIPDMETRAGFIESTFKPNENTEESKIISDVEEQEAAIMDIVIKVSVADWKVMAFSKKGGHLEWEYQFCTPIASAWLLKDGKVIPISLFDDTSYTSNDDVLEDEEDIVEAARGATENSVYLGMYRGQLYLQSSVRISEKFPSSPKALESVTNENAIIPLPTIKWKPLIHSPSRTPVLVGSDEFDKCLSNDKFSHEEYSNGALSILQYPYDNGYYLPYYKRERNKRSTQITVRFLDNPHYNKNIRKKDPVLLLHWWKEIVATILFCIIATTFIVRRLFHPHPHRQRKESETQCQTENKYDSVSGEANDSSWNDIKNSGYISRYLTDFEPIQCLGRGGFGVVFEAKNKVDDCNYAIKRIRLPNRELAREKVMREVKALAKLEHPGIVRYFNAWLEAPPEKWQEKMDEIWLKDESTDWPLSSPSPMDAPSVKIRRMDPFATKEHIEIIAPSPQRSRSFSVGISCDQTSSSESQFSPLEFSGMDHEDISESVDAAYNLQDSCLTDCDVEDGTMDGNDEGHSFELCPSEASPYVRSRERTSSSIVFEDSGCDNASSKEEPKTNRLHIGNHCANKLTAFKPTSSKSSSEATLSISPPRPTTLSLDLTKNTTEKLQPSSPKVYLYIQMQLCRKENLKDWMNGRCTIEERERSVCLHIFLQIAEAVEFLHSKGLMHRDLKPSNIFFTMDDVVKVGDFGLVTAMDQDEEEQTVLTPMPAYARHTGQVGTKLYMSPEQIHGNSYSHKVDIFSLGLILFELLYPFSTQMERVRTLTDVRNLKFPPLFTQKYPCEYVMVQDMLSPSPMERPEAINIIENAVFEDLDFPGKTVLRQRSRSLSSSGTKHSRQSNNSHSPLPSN

EC50 [1]: > 55.7 µM (not active)
EC50 [2]: > 55.7 µM (not active)
Compound: Cc1cscc1NC(=O)/C=C/C(=O)O

Compound: COc1ccc(-c2csc(NC(=O)c3ccccc3F)n2)cc1
CC50 (Vero): > 40 µM (active)

EC50 [3]: > 10 µM (not active)
Compound: CCOC(=O)N1CCC2(CC1)C(C#N)=C(N)Oc1c2c(C)nn1-c1cccc(Cl)c1

Compound: Cc1c(Cl)cccc1Nc1ccccc1C(=O)O [TOLFENAMIC ACID]
IC50 (Staphylococcus aureus): 0.459 µM (active)
IC50 (Cysteine protease ATG4B): 8.17 µM (active)
AC50 (Cytochrome P450 2C19): 15.8 µM (inconclusive)
IC50 (Phospholipase A2): 7.74 µM (active)
AC50 (Cytochrome P450 3A4): inconclusive
